Patent US7033802B1, “Penicillin binding protein gene and process for producing L-glutamic acid” (Ajinomoto Co., Inc., priority 1998, dated 2006)
“Also recorded” adds a separate entry of the source.

How the values were obtained:
PBP3 = test: Inhibition by mecillinam of binding of 14C-penicillin G to PBPs in membrane fraction (SDS-PAGE, image analyzer); set-up: species or system Brevibacterium lactofermentum; settings: mecillinam added at various concentrations before the penicillin binding reaction; membrane fraction of ATCC 13869
Procedure: PBP is considered to be a membrane protein. A membrane fraction of a coryneform bacterium was prepared as follows. A wild strain of coryneform bacteria, Brevibacterium lactofermentum ATCC 13869 strain, was inoculated to 20 ml of A medium (containing 10 g of polypeptone, 5 g of yeast extract, 5 g of NaCl and 5 g of glucose in 1 L of water), cultured at 30° C. with shaking, and harvested when the absorption at 660 nm reached about 1.0. The cells were washed in […] sodium phosphate buffer, pH 7.0. Then, the buffer was added with glass beads and sonicated to disrupt the cells. […] Protein concentration of this membrane fraction was determined by using a protein quantification kit (produced by PIERCE, Micro BCA Protein assay kit), and found to be 4 mg/ml.
A volume of 30 μl of the prepared membrane fraction was added with 3 μl of ^14C-penicillin G (produced by Amersham) and allowed to react at 30° C. for 10 minutes. […] A sample of this fraction was subjected to SDS-PAGE using gel containing 10% of polyacrylamide, and the gel was fixed, dried and analyzed with an image analyzer BAS2000 produced by Fuji Photo Film Co., Ltd. As a result, three bands were detected at 110 kDa, 100 kDa and 60 kDa, and designated as PBP1, PBP2 and PBP3, respectively. […]

[1] = system: Brevibacterium lactofermentum ATCC 13869; test: Glutamic acid production by coryneform bacterium induced by addition of mecillinam; assay type: cell-based; settings: A medium, 30° C., added after 2 hours, further cultured 8 hours
Procedure: The Brevibacterium lactofermentum ATCC 13869 strain was inoculated to the aforementioned A medium, cultured at 30° C. for 2 hours with shaking, then added with 0.01 μM to 100 μM of mecillinam, and further cultured for 8 hours with shaking. Subsequently, glutamic acid concentration in the medium was measured by using Biotech Analyzer AS210 (produced by Asahi Chemical Industry Co., Ltd.) (Table 1).

CC1(C)S[C@@H]2[C@H](/N=C/N3CCCCCC3)C(=O)N2[C@H]1C(=O)O [mecillinam]
inhibition of binding of PBP with isotope (14C) labeled penicillin G / selectivity among PBP1, PBP2, PBP3 (PBP3): only PBP3 was inhibited; also recorded: selectively binds to PBP3 | Concentration of L-glutamic acid ([1]; 0.1 μM added mecillinam): 0 mg/L | Concentration of L-glutamic acid ([1]; 1.0 μM added mecillinam): 0 mg/L | Concentration of L-glutamic acid ([1]; 10 μM added mecillinam): 0 mg/L | Concentration of L-glutamic acid ([1]; 100 μM added mecillinam): 575 mg/L
